Patent publication US9265253B2, “Use of macrocyclic picolinamides as fungicides” (DOW AGROSCIENCES LLC, priority 2013, dated 2016)

Tests used:
Format in all cases: in vivo
[1] = test system: Glomerella lagenarium; Anamorph: Colletotrichum lagenarium; test: Cucumber Anthracnose (COLLLA) disease control; settings: Colletotrichum orbiculare, topical, 24 h, 1 Day Protectant, read-out: Disease Control COLLLA 1 DP
Experimental: Technical grades of materials were dissolved in acetone, which were then mixed with nine volumes of water containing 110 ppm Triton X-100. The fungicide solutions were applied onto wheat seedlings using an automated booth sprayer to run-off. All sprayed plants were allowed to air dry prior to further handling. All fungicides were evaluated using the aforementioned method for their activity vs. all target diseases. Wheat leaf blotch and brown rust activity were also evaluated using track spray applications, in which case the fungicides were formulated as EC formulations, containing 0.1% Trycol 5941 in the spray solutions. Wheat plants (variety Yuma) were grown from seed in a greenhouse in 50% mineral soil/50% soil-less Metro mix until the first leaf was fully emerged, with 7-10 seedlings per pot. These plants were inoculated with an aqueous spore suspension of Septoria tritici either prior to or after fungicide treatments. After inoculation the plants were kept in 100% relative humidity (one day in a dark dew chamber followed by two to three days in a lighted dew chamber at 20° C.) to permit spores to germinate and infect the leaf. The plants were then transferred to a greenhouse set at 20° C. for disease to develop. When disease symptoms were fully expressed on the 1st leaves of untreated plants, infection levels were assessed on a scale of 0 to 100 percent disease severity. Percent disease control was calculated using the ratio of disease severity on treated plants relative to untreated plants. Cucumber seedlings (variety Bush Pickle) were propagated in soil-less Metro mix, with each pot having one plant, and used in the test when 12 to 14 days old. Test plants were inoculated with an aqueous spore suspension of Colletotrichum lagenarium 24 hr after fungicide treatments. After inoculation the plants were kept in a dew room at 22° C. with 100% relative humidity for 48 hr to permit spores to germinate and infect the leaf. The plants were then transferred to a growth room set at 22° C. for disease to develop. Fungicide formulation, application and disease assessment on the sprayed leaves followed the procedures as described in the Example A.

Leptosphaeria nodorum = test: Wheat Glume Blotch (LEPTNO) disease control; settings: Parastagonospora nodorum, topical, 24 h, 1 Day Protectant, read-out: Disease Control LEPTNO 1 DP
Experimental: Technical grades of materials were dissolved in acetone, which were then mixed with nine volumes of water containing 110 ppm Triton X-100. The fungicide solutions were applied onto wheat seedlings using an automated booth sprayer to run-off. All sprayed plants were allowed to air dry prior to further handling. All fungicides were evaluated using the aforementioned method for their activity vs. all target diseases. Wheat leaf blotch and brown rust activity were also evaluated using track spray applications, in which case the fungicides were formulated as EC formulations, containing 0.1% Trycol 5941 in the spray solutions. Wheat plants (variety Yuma) were grown from seed in a greenhouse in 50% mineral soil/50% soil-less Metro mix until the first leaf was fully emerged, with 7-10 seedlings per pot. These plants were inoculated with an aqueous spore suspension of Septoria tritici either prior to or after fungicide treatments. After inoculation the plants were kept in 100% relative humidity (one day in a dark dew chamber followed by two to three days in a lighted dew chamber at 20° C.) to permit spores to germinate and infect the leaf. The plants were then transferred to a greenhouse set at 20° C. for disease to develop. When disease symptoms were fully expressed on the 1st leaves of untreated plants, infection levels were assessed on a scale of 0 to 100 percent disease severity. Percent disease control was calculated using the ratio of disease severity on treated plants relative to untreated plants. Wheat plants (variety Yuma) were grown from seed in a greenhouse in 50% mineral soil/50% soil-less Metro mix until the first leaf was fully emerged, with 7-10 seedlings per pot. These plants were inoculated with an aqueous spore suspension of Leptosphaeria nodorum 24 hr after fungicide treatments. After inoculation the plants were kept in 100% relative humidity (one day in a dark dew chamber followed by two days in a lighted dew chamber at 20° C.) to permit spores to germinate and infect the leaf. The plants were then transferred to a greenhouse set at 20° C. for disease to develop. Fungicide formulation, application and disease assessment followed the procedures as described in the Example A.

Alternaria solani = test: Tomato Early Blight (ALTESO) disease control; settings: Alternaria solani, topical, 24 h, 1 Day Protectant, read-out: Disease Control ALTESO 1 DP
Experimental: Technical grades of materials were dissolved in acetone, which were then mixed with nine volumes of water containing 110 ppm Triton X-100. The fungicide solutions were applied onto wheat seedlings using an automated booth sprayer to run-off. All sprayed plants were allowed to air dry prior to further handling. All fungicides were evaluated using the aforementioned method for their activity vs. all target diseases. Wheat leaf blotch and brown rust activity were also evaluated using track spray applications, in which case the fungicides were formulated as EC formulations, containing 0.1% Trycol 5941 in the spray solutions. Wheat plants (variety Yuma) were grown from seed in a greenhouse in 50% mineral soil/50% soil-less Metro mix until the first leaf was fully emerged, with 7-10 seedlings per pot. These plants were inoculated with an aqueous spore suspension of Septoria tritici either prior to or after fungicide treatments. After inoculation the plants were kept in 100% relative humidity (one day in a dark dew chamber followed by two to three days in a lighted dew chamber at 20° C.) to permit spores to germinate and infect the leaf. The plants were then transferred to a greenhouse set at 20° C. for disease to develop. When disease symptoms were fully expressed on the 1st leaves of untreated plants, infection levels were assessed on a scale of 0 to 100 percent disease severity. Percent disease control was calculated using the ratio of disease severity on treated plants relative to untreated plants. Tomato plants (variety Outdoor girl) were propagated in soil-less Metro mix, with each pot having one plant, and used when 12 to 14 days old. Test plants were inoculated with an aqueous spore suspension of Alternaria solani 24 hr after fungicide treatments. After inoculation the plants were kept in 100% relative humidity (one day in a dark dew chamber followed by two to three days in a lighted dew chamber at 20° C.) to permit spores to germinate and infect the leaf. The plants were then transferred to a growth room at 22° C. for disease to develop. Fungicide formulation, application and disease assessment on the sprayed leaves followed the procedures as described in the Example A.

Measured: pest or weed control at 100 ppm

CCCO[C@@H]1[C@@H](CCC(C)C)CCC[C@H](NC(=O)c2nccc(OC)c2OCOC(=O)COCC)C(=O)O[C@H]1C [Compound F161]
80 to 100%: all assays above
